The target in assay [1] is T1, hMOR-1 (Homo sapiens, UniProt P35372).
T1 construct: purchased Amersham Biosciences; host or cells: stably transfected CHO cells (membrane preparation)
Put plainly: MOR GTP-γ-S assay (MOR activation). The assay is classed as biochemical. The settings on record: Table 15; compound 10 mM (footnote); percentage of DAMGO induced GTP-g-35S specific binding; CHO membranes with hMOR-1. The protocol: MOR GTP-γ-S assay was run in the same 200 μL, 96 well format as the binding assay. Each microassay contained experimental compound, 0.04 nM GTP-γ-^35S, 9 μM GDP, and about 0.02 nM MOR (from stably transfected CHO cells), in assay buffer (50 mM Tris-HCl, 3 mM MgCl2, 0.2 mM EGTA, 100 mM NaCl, pH 7.4). The assays were incubated for two to three hours at room temperature, then filtered onto a filter plate. The plate was dried; scintillation fluid was added, and the wells were counted for ^35S. Blank assays were run to determine non-specific binding. […] The results were averaged; the non-specific counts were subtracted, and the resulting value was expressed as a percent of the value obtained for DAMGO. The error reported is two standard deviations from the mean of the quadruplicate experiment. The values were compared using one way Anova with Tukey's post-hoc analysis.

Another assay addresses T2, KOR (Cavia porcellus, UniProt P41144).
T2 construct: from tissue; host or cells: guinea pig cerebellum preparation
Put plainly: Opioid receptor competitive binding assay, KOR (3H-U-69,593). The settings on record: for Ki: Ki KOR, Table 10, 3H-U-69,593, guinea pig cerebellum preparation, errors two standard deviations; for Ki KOR/Ki MOR: Table 13, selectivity for MOR versus KOR. Set-up: species or system guinea pig. The protocol:
(§1) For selected compounds, Ki for MOR, DOR, and KOR were determined according to the following procedure: Recombinant hMOR-1 membrane preps from stably transfected CHO cells and recombinant hDOR-1 membrane preps from stably transfected HEK-293 cells were purchased from Amersham Biosciences. Guinea pig cerebellum preparations were used for KOR assays.
(§2) Each microassay from an assay plate was filtered through an individual well of a Packard GF/B 96-well filter plate (glass fiber filter) to collect the membranes. Each well was washed twice with 200 μL of ice cold wash buffer (50 mM Tris, pH 7.4). The filter plate was allowed to dry overnight, the back was sealed, and Packard Bioscience Microscint PS scintillation fluid (75 μL) was added to each well, which was then counted for ^3H for 2 minutes using a Packard Bioscience TopCount scintillation counter plate reader.
(§3) Each compound was assayed at 8 concentrations, using half-log serial dilutions. Each concentration was tested in triplicate, and the ^3H cpm were averaged.
(§4) This triplicate experiment was repeated three times for the MOR and twice for the DOR and the KOR.

The target of assay [2] is T1, hMOR-1. Put plainly: Opioid receptor competitive binding assay, MOR (3H-DAMGO). The settings on record: Ki MOR, Table 4; 3H-DAMGO, hMOR-1 stably transfected into CHO cells; errors 95% confidence interval. As to the method: as §1, §2, §3
(§5) This concentration was determined experimentally by scintillation counting an aliquot of the radioligand stock solution used in the assay.
(§6) Kd=the binding constant for the radioligand.
as §4

For a further assay, the target named is T3, hDOR-1 (Homo sapiens, UniProt P41143).
T3 construct: purchased Amersham Biosciences; host or cells: stably transfected HEK-293 cells (membrane preparation)
Put plainly: Opioid receptor competitive binding assay, DOR. As to conditions: for Ki: Ki DOR, Table 7, 3H-diprenorphine, hDOR-1 stably transfected into HEK-293 cells, errors two standard deviations; for Ki DOR/Ki MOR: Table 13, selectivity for MOR versus DOR (footnote: 3H-DPDPE, hDOR-1). As to the method:
as §1, §2, §3, §5, §6, §4

Structures are written as SMILES.

As usually defined, the Ki is a measure of affinity in units of concentration, obtained from inhibition or displacement. In the case of `Cc1cc(O)cc(C)c1CC(N)C(O)C/C=C/C(O)C(Cc1ccccc1)C(=O)NC(Cc1ccccc1)C(N)=O` (single isomer, unassigned) [(S,R,R,R)-25, 7-(1-Carbamoyl-2-phenyl-ethylcarbamoyl)-2,6-dihydroxy-1-(4-hydroxy-2,6-dimethyl-benzyl)-8-phenyl-oct-4-enyl-ammonium], at hMOR-1 [1], the “% GTP-γ-35S bound” value was 43 ± 9%. Besides, the Ki on KOR is 25 ± 14 nM; on hMOR-1 [2], 1.6 ± 0.9 nM; at hDOR-1 it was 85 ± 13 nM. On KOR, the “Ki KOR/Ki MOR” value is 16. Further, at hDOR-1, the “Ki DOR/Ki MOR” value is on record as 53.
For the molecule `Cc1cc(O)cc(C)c1CC(N)C(O)C/C=C/C(O)C(Cc1ccccc1)C(=O)NCCc1ccccc1` (single isomer, unassigned) [(S,R,R,R)-26, 2,6-Dihydroxy-1-(4-hydroxy-2,6-dimethyl-benzyl)-7-phenethylcarbamoyl-8-phenyl-oct-4-enyl-ammonium], the “% GTP-γ-35S bound” value at hMOR-1 [1] was determined as 27 ± 9%. Moreover, on KOR, the Ki came to 69 ± 20 nM and the “Ki KOR/Ki MOR” value was determined as 96. In addition, at hMOR-1 [2], the Ki is 0.72 ± 0.26 nM. Moreover, at hDOR-1, the Ki is 66 ± 1 nM and the “Ki DOR/Ki MOR” value is recorded as 91.
For the molecule `Cc1cc(O)cc(C)c1CC(N)C(O)C/C=C/C(O)C(Cc1ccccc1)C(=O)NC(Cc1ccccc1)C(N)=O` (single isomer, unassigned) [(S,R,S,R)-25, 7-(1-Carbamoyl-2-phenyl-ethylcarbamoyl)-2,6-dihydroxy-1-(4-hydroxy-2,6-dimethyl-benzyl)-8-phenyl-oct-4-enyl-ammonium], the “% GTP-γ-35S bound” value at hMOR-1 [1] amounted to 14 ± 3%. For the same molecule, at KOR, the affinity, expressed as Ki, was 15 ± 8 nM and the “Ki KOR/Ki MOR” value is 13. The molecule further showed a Ki on hMOR-1 [2] of 1.2 ± 0.3 nM. Further, on hDOR-1, the Ki is 46 ± 16 nM and the “Ki DOR/Ki MOR” value came out at 38.
For the molecule `Cc1cc(O)cc(C)c1CC(N)C(O)C/C=C/C(O)C(Cc1ccccc1)C(=O)NCCc1ccccc1` (single isomer, unassigned) [(S,R,S,R)-26, 2,6-Dihydroxy-1-(4-hydroxy-2,6-dimethyl-benzyl)-7-phenethylcarbamoyl-8-phenyl-oct-4-enyl-ammonium], at hMOR-1 [1], the “% GTP-γ-35S bound” value amounted to 49 ± 4%. Also, the Ki turned out to be 51 ± 1 nM at KOR, 0.24 ± 0.05 nM on hMOR-1 [2] and 123 ± 8 nM on hDOR-1. The “Ki KOR/Ki MOR” value at KOR worked out at 210. The “Ki DOR/Ki MOR” value on hDOR-1 was 510.
As for `Cc1cc(O)cc(C)c1CC(N)C(O)C/C=C/C(O)C(Cc1ccccc1)C(=O)NC(Cc1ccccc1)C(N)=O` (single isomer, unassigned) [(S,S,R,R)-25, 7-(1-Carbamoyl-2-phenyl-ethylcarbamoyl)-2,6-dihydroxy-1-(4-hydroxy-2,6-dimethyl-benzyl)-8-phenyl-oct-4-enyl-ammonium], the “% GTP-γ-35S bound” value at hMOR-1 [1] worked out at 75 ± 11%. In addition, at KOR, affinity was put at a Ki of 21 ± 4 nM and the “Ki KOR/Ki MOR” value is 49. Affinity on hMOR-1 [2] was put at a Ki of 0.42 ± 0.09 nM. In addition, on hDOR-1, the Ki is 36 ± 6 nM and the “Ki DOR/Ki MOR” value was 86.
For the molecule `Cc1cc(O)cc(C)c1CC(N)C(O)C/C=C/C(O)C(Cc1ccccc1)C(=O)NCCc1ccccc1` (single isomer, unassigned) [(S,S,R,R)-26, 2,6-Dihydroxy-1-(4-hydroxy-2,6-dimethyl-benzyl)-7-phenethylcarbamoyl-8-phenyl-oct-4-enyl-ammonium], the “% GTP-γ-35S bound” value on hMOR-1 [1] came to 48 ± 9%. Further, at KOR, affinity was put at a Ki of 64 ± 14 nM and the “Ki KOR/Ki MOR” value is on record as 170. Also, on hMOR-1 [2], the Ki was 0.37 ± 0.13 nM. On hDOR-1, the Ki stood at 26 ± 3 nM and the “Ki DOR/Ki MOR” value turned out to be 70.
`Cc1cc(O)cc(C)c1CC(N)C(O)C/C=C/C(O)C(Cc1ccccc1)C(=O)NC(Cc1ccccc1)C(N)=O` (single isomer, unassigned) [(S,S,R,S)-25, 7-(1-Carbamoyl-2-phenyl-ethylcarbamoyl)-2,6-dihydroxy-1-(4-hydroxy-2,6-dimethyl-benzyl)-8-phenyl-oct-4-enyl-ammonium]: the “% GTP-γ-35S bound” value at hMOR-1 [1] turned out to be 32 ± 5%. At KOR, the Ki amounted to 50 ± 16 nM and the “Ki KOR/Ki MOR” value is reported as 41. Further, the affinity on hMOR-1 [2], expressed as Ki, was 1.2 ± 0.4 nM. Also, at hDOR-1, the Ki was 230 ± 20 nM and the “Ki DOR/Ki MOR” value came out at 190.
As for `Cc1cc(O)cc(C)c1CC(N)C(O)C/C=C/C(O)C(Cc1ccccc1)C(=O)NCCc1ccccc1` (single isomer, unassigned) [(S,S,R,S)-26, 2,6-Dihydroxy-1-(4-hydroxy-2,6-dimethyl-benzyl)-7-phenethylcarbamoyl-8-phenyl-oct-4-enyl-ammonium], the “% GTP-γ-35S bound” value on hMOR-1 [1] is given as 52 ± 6%. Moreover, on KOR, the affinity corresponds to a Ki of 60 ± 32 nM and the “Ki KOR/Ki MOR” value is 94. Moreover, at hMOR-1 [2], the Ki was found to be 0.64 ± 0.09 nM. Moreover, at hDOR-1, the affinity corresponds to a Ki of 120 ± 30 nM and the “Ki DOR/Ki MOR” value was 190.
On to `Cc1cc(O)cc(C)c1CC(N)C(O)C/C=C/C(O)C(Cc1ccccc1)C(=O)NC(Cc1ccccc1)C(N)=O` (single isomer, unassigned) [(S,S,S,R)-25, 7-(1-Carbamoyl-2-phenyl-ethylcarbamoyl)-2,6-dihydroxy-1-(4-hydroxy-2,6-dimethyl-benzyl)-8-phenyl-oct-4-enyl-ammonium], for which, on hMOR-1 [1], the “% GTP-γ-35S bound” value was 35 ± 5%. Further, the results for the Ki at KOR, at hMOR-1 [2] and on hDOR-1 were 22 ± 9 nM, 0.17 ± 0.07 nM and 40 ± 1 nM, respectively. Further, the “Ki KOR/Ki MOR” value on KOR is recorded as 130. For the same molecule, at hDOR-1, the “Ki DOR/Ki MOR” value amounted to 230.
For `Cc1cc(O)cc(C)c1CC(N)C(O)C/C=C/C(O)C(Cc1ccccc1)C(=O)NCCc1ccccc1` (single isomer, unassigned) [(S,S,S,R)-26, 2,6-Dihydroxy-1-(4-hydroxy-2,6-dimethyl-benzyl)-7-phenethylcarbamoyl-8-phenyl-oct-4-enyl-ammonium], the “% GTP-γ-35S bound” value at hMOR-1 [1] was determined as 40 ± 3%. Moreover, at KOR, affinity was put at a Ki of 42 ± 29 nM and the “Ki KOR/Ki MOR” value was 140. Further, the affinity at hMOR-1 [2] corresponds to a Ki of 0.29 ± 0.06 nM. Moreover, at hDOR-1, affinity was put at a Ki of 99 ± 11 nM and the “Ki DOR/Ki MOR” value was found to be 340.
Take `Cc1cc(O)cc(C)c1CC(N)C(O)C/C=C/C(O)C(Cc1ccccc1)C(=O)NC(CO)Cc1ccccc1` [(S,S,S,R)-27]: the “% GTP-γ-35S bound” value at hMOR-1 [1] is 44 ± 6%. Besides, the Ki on KOR was 69 ± 14 nM; on hMOR-1 [2] it was 0.16 ± 0.06 nM; at hDOR-1, 54 ± 8 nM.
Consider `Cc1cc(O)cc(C)c1CC(N)C(O)C/C=C/C(O)C(Cc1ccccc1)C(=O)OC(CO)Cc1ccccc1` [(S,S,S,R)-30, 7-(1-Benzyl-2-hydroxy-ethoxycarbonyl)-2,6-dihydroxy-1-(4-hydroxy-2,6-dimethyl-benzyl)-8-phenyl-oct-4-enyl-ammonium], for which, on hMOR-1 [1], the “% GTP-γ-35S bound” value turned out to be 62 ± 4%. Besides, on KOR, the Ki was 85 ± 1 nM and the “Ki KOR/Ki MOR” value was found to be 190. The Ki at hMOR-1 [2] is 0.44 ± 0.01 nM. At hDOR-1, the affinity, expressed as Ki, was 17 ± 6 nM and the “Ki DOR/Ki MOR” value was 39.

Source of the values: patent publication US7223888B2, “Mu opioid receptor ligands: methods of use and synthesis” (President and Fellows of Harvard College, priority 2002, dated 2007).
